Measured values from US9623028B2, “Methods of treating a cancer using substituted pyrrolopyrimidine compounds, compositions thereof” (Signal Pharmaceuticals, LLC, priority 2014, dated 2017).
Read-outs that look alike come from different tables or passages of the source.

Tested on: breast cancer cell lines
Assay: cells
Settings: for IC50: read-out: Growth Inhibition IC50; for GI50: read-out: Growth inhibition GI50
[1] = Homo sapiens, MDA-MB-175-VII, 96 h

CNC(=O)c1ccc(Nc2nc(OC(C)C)c3c(-c4ccc5nc(C)oc5c4)c[nH]c3n2)c(OC)c1 [Compound 125, 4-((4-isopropoxy-5-(2-methylbenzo[d]oxazol-6-yl)-7H-pyrrolo[2,3-d]pyrimidin-2-yl)amino)-3-methoxy-N-methylbenzamide]
IC50 (96 h): 419 nM | GI50 (96 h): 116 nM | IC50 (EFM-192A, 96 h): 1280 nM | GI50 (EFM-192A, 96 h): 294 nM | IC50 (HCC202, 96 h): 190 nM | GI50 (HCC202, 96 h): 28 nM | IC50 (HCC1500, 96 h): 2280 nM | GI50 (HCC1500, 96 h): 103 nM | IC50 (Homo sapiens, AU565, 96 h): 21 nM | GI50 (Homo sapiens, AU565, 96 h): 16 nM | IC50 (Homo sapiens, BT-20, 96 h): 44 nM | GI50 (Homo sapiens, BT-20, 96 h): 28 nM | IC50 (Homo sapiens, BT-474, 96 h): 595 nM | GI50 (Homo sapiens, BT-474, 96 h): 10000 nM | IC50 (Homo sapiens, BT-483, 96 h): 3400 nM | IC50 (Homo sapiens, BT-549, 96 h): 66 nM | GI50 (Homo sapiens, BT-549, 96 h): 34 nM | IC50 (Homo sapiens, CAL-51, 96 h): 10 nM | GI50 (Homo sapiens, CAL-51, 96 h): 9 nM | IC50 (Homo sapiens, CAL-85-1, 96 h): 93 nM | GI50 (Homo sapiens, CAL-85-1, 96 h): 29 nM | IC50 (Homo sapiens, CAL-120, 96 h): 272 nM | GI50 (Homo sapiens, CAL-120, 96 h): 10000 nM | IC50 (Homo sapiens, CAL-148, 96 h): 168 nM | GI50 (Homo sapiens, CAL-148, 96 h): 47 nM | IC50 (Homo sapiens, CAMA-1, 96 h): 763 nM | GI50 (Homo sapiens, CAMA-1, 96 h): 590 nM | IC50 (Homo sapiens, DU-4475, 96 h): 246 nM | GI50 (Homo sapiens, DU-4475, 96 h): 38 nM | IC50 (Homo sapiens, EFM-19, 96 h): 181 nM | GI50 (Homo sapiens, EFM-19, 96 h): 35 nM | IC50 (Homo sapiens, EVSA-T, 96 h): 206 nM | GI50 (Homo sapiens, EVSA-T, 96 h): 6000 nM | IC50 (Homo sapiens, HCC38, 96 h): 12 nM | GI50 (Homo sapiens, HCC38, 96 h): 9 nM | IC50 (Homo sapiens, HCC70, 96 h): 268 nM | GI50 (Homo sapiens, HCC70, 96 h): 47 nM | IC50 (Homo sapiens, HCC1143, 96 h): 481 nM | GI50 (Homo sapiens, HCC1143, 96 h): 215 nM | IC50 (Homo sapiens, HCC1187, 96 h): 31 nM | GI50 (Homo sapiens, HCC1187, 96 h): 27 nM | IC50 (Homo sapiens, HCC1419, 96 h): 2510 nM | GI50 (Homo sapiens, HCC1419, 96 h): 10000 nM | IC50 (Homo sapiens, HCC1428, 96 h): 472 nM | GI50 (Homo sapiens, HCC1428, 96 h): 326 nM | IC50 (Homo sapiens, HCC1569, 96 h): 408 nM | GI50 (Homo sapiens, HCC1569, 96 h): 88 nM | IC50 (Homo sapiens, HCC1806, 96 h): 11 nM | GI50 (Homo sapiens, HCC1806, 96 h): 8 nM | IC50 (Homo sapiens, HCC1937, 96 h): 311 nM | GI50 (Homo sapiens, HCC1937, 96 h): 6380 nM | IC50 (Homo sapiens, HCC1954, 96 h): 68 nM | GI50 (Homo sapiens, HCC1954, 96 h): 27 nM | IC50 (Homo sapiens, HDQ-P1, 96 h): 83 nM | GI50 (Homo sapiens, HDQ-P1, 96 h): 106 nM | IC50 (Homo sapiens, Hs-578T, 96 h): 41 nM | GI50 (Homo sapiens, Hs-578T, 96 h): 47 nM | IC50 (Homo sapiens, JIMT-1, 96 h): 165 nM | GI50 (Homo sapiens, JIMT-1, 96 h): 61 nM | IC50 (Homo sapiens, MCF7, 96 h): 12 nM | GI50 (Homo sapiens, MCF7, 96 h): 11 nM | IC50 (Homo sapiens, MDA-MB-134-VI, 96 h): 3170 nM | IC50 (Homo sapiens, MDA-MB-157, 96 h): 631 nM | GI50 (Homo sapiens, MDA-MB-157, 96 h): 114 nM | IC50 [1]: 2840 nM | GI50 [1]: 5280 nM | IC50 (Homo sapiens, MDA-MB-231, 96 h): 31 nM | GI50 (Homo sapiens, MDA-MB-231, 96 h): 19 nM | IC50 (Homo sapiens, MDA-MB-361, 96 h): 1470 nM | GI50 (Homo sapiens, MDA-MB-361, 96 h): 91 nM | IC50 (Homo sapiens, MDA-MB-415, 96 h): 5510 nM | GI50 (Homo sapiens, MDA-MB-415, 96 h): 10000 nM | IC50 (Homo sapiens, MDA-MB-436, 96 h): 510 nM | GI50 (Homo sapiens, MDA-MB-436, 96 h): 999 nM | IC50 (Homo sapiens, MDA-MB-453, 96 h): 668 nM | GI50 (Homo sapiens, MDA-MB-453, 96 h): 10000 nM | IC50 (Homo sapiens, MDA-MB-468, 96 h): 24 nM | GI50 (Homo sapiens, MDA-MB-468, 96 h): 23 nM | IC50 (Homo sapiens, MFM-223, 96 h): 172 nM | GI50 (Homo sapiens, MFM-223, 96 h): 43 nM | IC50 (Homo sapiens, SK-BR-3, 96 h): 272 nM | GI50 (Homo sapiens, SK-BR-3, 96 h): 81 nM | IC50 (Homo sapiens, T47D, 96 h): 336 nM | GI50 (Homo sapiens, T47D, 96 h): 81 nM | IC50 (Homo sapiens, UACC-812, 96 h): 296 nM | GI50 (Homo sapiens, UACC-812, 96 h): 319 nM | IC50 (Homo sapiens, UACC-893, 96 h): 787 nM | IC50 (Homo sapiens, ZR-75-1, 96 h): 3310 nM | GI50 (Homo sapiens, ZR-75-1, 96 h): 32 nM | IC50 (Homo sapiens, ZR-75-30, 96 h): 715 nM | IC50 (KPL-1, 96 h): 64 nM | GI50 (KPL-1, 96 h): 126 nM | IC50 (MT-3, 96 h): 8500 nM | GI50 (MT-3, 96 h): 5760 nM
